Measurements: article PMC7067268, “Biosynthesis of plant tetrahydroisoquinoline alkaloids through an imine reductase route” (Chemical Science, 2019)
Read-outs that look alike come from different tables or passages of the source.

How the values were obtained:
IR45 [1] = assay: imine reduction kinetics; conditions: read-out: IR45 / K m; NADPH-dependent
IR45 [2] = assay: imine reduction kinetics; conditions: read-out: F190L-W191F / K m; NADPH-dependent
IR45 [3] = assay: imine reduction kinetics; conditions: read-out: F190M-W191F / K m; NADPH-dependent
[4] = system: COc1cc2c(cc1OC)[C@H](c1ccc3c(c1)OCO3)NCC2; assay: purified protein; conditions: co-substrate S-adenosylmethionine
[5] = system: COc1ccc(C[C@@H]2NCCc3cc(OC)c(OC)cc32)cc1OC; assay: purified protein; conditions: co-substrate S-adenosylmethionine

Km (IR45 [1])	Km (IR45 [2])	Km (IR45 [3])	Compound	Km [4]	kcat [4]	Km [5]	kcat [5]
–	307 µM	–	COc1ccc(C2=NCCc3cc(OC)c(OC)cc32)cc1OC [2a]	–	–	–	–
–	372 µM	–	COc1cc2c(cc1OC)C(c1cc(OC)c(OC)c(OC)c1)=NCC2 [3a]	–	–	–	–

Second part, the compound before the results:

Compound	Km (IR45 [1])	Km (IR45 [2])	Km (IR45 [3])	Km [4]	kcat [4]	Km [5]	kcat [5]
COc1cc2c(cc1OC)C(c1ccc3c(c1)OCO3)=NCC2 [1a]	154 µM	123 µM	108 µM	–	–	–	–
COc1cc2c(cc1OC)C(Cc1ccccc1)=NCC2 [4a]	148 µM	252 µM	251 µM	–	–	–	–
COc1ccc(CC2=NCCc3cc(OC)c(OC)cc32)cc1OC [5a]	518 µM	353 µM	178 µM	–	–	–	–
Coclaurine N-methyltransferase (CNMT) (Coptis japonica)	–	–	–	806 ± 198 µM	0.098 ± 0.031 s⁻¹	807 ± 208 µM	0.296 ± 0.042 s⁻¹
